Assay [1] has as its system RBL2H3 cells. The experiment in a line: Degranulation assay: β-hexosaminidase release during immune complex mediated degranulation. Format: cell-based, rat. The conditions noted are these: Rattus norvegicus, RBL-2H3, Assay Protocol B (96 well format); for inhibition at 1 µM: read-out: Degranulation % inhibition at 1 μM; for EC50: read-out: Degranulation EC50. Here is the method:
The objective of this assay was to examine by Fluorescence method the effect of compounds on β-hexosaminidase release during immune complex mediated degranulation in RBL2H3 cells. Compounds were tested for their ability to inhibit the ability of this immune complex to mediate β-hexosaminidase release, in an enzyme assay with […] as substrate. […] Emission 460 nm). [table] [table] RBL2H3 cells were maintained in MEM complete media containing 10% FBS at 70%-80% confluence in a mammalian cell culture CO2 incubator with 5% CO2 at 37° C. 2×10^5 cells/well were plated in 1 mL of complete media and incubated for 5 hours for cell attachment. Complete media was replaced with 1 mL of serum free MEM media containing 1.2 μg/mL of anti-DNP rat IgE as sensitizing agent and further incubated overnight with 5% CO2 at 37° C. […] Cells were further stimulated with 5 μg/mL of DNP-BSA for 60 minutes. Plates were centrifuged for 5 minutes at 1000 rpm and 25 μL of culture supernatant was transferred from each assay well into a 96 well black coated plate. 25 μL β-NAG substrate was added to this mixture and incubated at room temperature for 30 minutes. The reaction was terminated with 100 μL of stop solution and fluorescence was monitored. (Excitation 355 nm; Emission 460 nm) See, Sanderson, (2010), Cellular Immunology, 262(1): 28-34 and Silverman, (2006) MCB, 26(5):1826-1838, which are incorporated herein by reference. The % release of β-Hexosaminidase for the test compound was calculated using the following formula: RBL2H3 cells were maintained in MEM complete media containing 10% FBS at 70-80% confluence in a mammalian cell culture CO2 incubator with 5% CO2 at 37° C. 5×10^4 cells/well were plated in 200 μL of complete media containing 0.3 μg/mL of anti-DNP rat IgE as sensitizing agent for 24 hours at 37° C. & 5% CO2. The following day, cells were washed twice with PIPES buffer for 10 minutes at 37° C. and replenished with serum free MEM media. Cells were treated with various concentrations of test compounds (in 0.5% DMSO) for 15 minutes at 37° C. and 5% CO2. The cells were further stimulated with 0.1 μg/mL of DNP-BSA for 45 minutes. The plates were spun for 5 minutes at 2000 rpm and 25 μL of culture supernatant was then transferred from each assay well into a 96 well black coated plate. […] β-NAG substrate was added and incubated at RT for 30 minutes. After incubation with substrate, 150 μL of stop solution was added and fluorescence was monitored. (Excitation 355 nm; Emission 460 nm). See, Yamamoto, JPET, 306(3):1174-1181 (2003) and Taylor, MCB, 15(8): 4149-4157 (1995), which are herein incorporated by reference. Release of β-hexosaminidase during the degranulation process by immune complex mediated FcεRI stimulation is through the SYK pathway. The % inhibition of β-hexosaminidase release by Syk inhibitor gives information with regard to its Syk inhibition potency.

For assay [2], the target named is JAK2 (Homo sapiens (Human), UniProt O60674). The experiment in a line: Inhibition of enzymatic JAK2 kinase activity (TR-FRET). Format: biochemical. The conditions noted are these: read-out: IC50 JAK. The method in brief: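 Enzyme preincubated with compound 30 min at RT, then Ulight-poly-GT substrate and ATP added for 60 min at RT. EDTA stop, Eu-antiphosphotyrosine antibody; TR-FRET ratio 665/615 nm (ex 340 nm), blank-corrected; % inhibition versus positive control.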
JAK2, sequence (O60674 808-1132): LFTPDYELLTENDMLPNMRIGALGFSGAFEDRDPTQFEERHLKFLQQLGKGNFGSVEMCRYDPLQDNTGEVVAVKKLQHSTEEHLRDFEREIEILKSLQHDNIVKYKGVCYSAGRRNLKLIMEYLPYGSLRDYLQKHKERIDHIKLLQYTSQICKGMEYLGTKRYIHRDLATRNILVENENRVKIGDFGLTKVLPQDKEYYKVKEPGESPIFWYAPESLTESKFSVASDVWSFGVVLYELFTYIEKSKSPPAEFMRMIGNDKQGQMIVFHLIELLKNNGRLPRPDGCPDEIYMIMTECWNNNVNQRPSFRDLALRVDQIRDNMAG
On the technique in general: Time-resolved FRET reads energy transfer from a long-lived donor to a nearby acceptor.

Assay [3] concerns the target Syk (356-635 amino acids) catalytic domain (Homo sapiens (Human), UniProt P43405). Kind of assay: Inhibition of enzymatic Syk kinase activity (radiometric). Format: biochemical. The conditions noted are these: read-out: IC50 Syk. In outline: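 Human Syk (356-635) kinase domain (0.035–7.5 ng/reaction) preincubated with compound 30 minutes at room temperature, then reacted with pG4T substrate, 100 μM ATP (stock) and γ-32P-ATP for 10 minutes at 30° C. Reaction stopped with HCl/ATP, spotted on P81 paper, washed and counted by scintillation. Percent inhibition versus no-compound counts.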

Counter-ions that a name gives are not always drawn. Where only a bound is given, the exact number is not on record here.

As a reminder, the inhibition is how much of the control response was suppressed. What is called EC50 is the concentration that produces a half-maximal response. By IC50 is commonly meant the concentration that gives 50% inhibition. Turning to `CN1CCN(C(=O)COc2ccc(Nc3nc(N4CCCCCC4)nc4cn[nH]c(=O)c34)cc2)CC1` [Example 283, 2-(azepan-1-yl)-4-((4-(2-(4-methylpiperazin-1-yl)-2-oxoethoxy)phenyl)amino)pyrimido[4,5-d]pyridazin-5(6H)-one], in assay [1], the inhibition at 1 µM came to 71% and the EC50 was 39 nM. Also, the IC50 in assay [2] was below 10 nM. Besides, the IC50 in assay [3] was below 10 nM.

Consider `O=c1[nH]ncc2nc(N3CCCCCC3)nc(Nc3ccc(N(CCO)CCO)cc3)c12` [Example 306, 2-(azepan-1-yl)-4-((4-(bis(2-hydroxyethyl)amino)phenyl)amino) pyrimido[4,5-d]pyridazin-5(6H)-one], for which, in assay [1], the inhibition at 1 µM was 100% and the EC50 was 15 nM. Further, the IC50 in assay [2] is below 10 nM. In assay [3], the IC50 was below 10 nM.

As to `O=C1CN(CCOc2ccc(Nc3nc(N4CCCCCC4)nc4cn[nH]c(=O)c34)cc2)CCN1` [Example 157, 2-(azepan-1-yl)-4-((4-(2-(3-oxopiperazin-1-yl)ethoxy)phenyl)amino) pyrimido[4,5-d]pyridazin-5(6H)-one], in assay [1], the inhibition at 1 µM is 70% and the concentration giving a half-maximal response (EC50) came out at 42 nM. The 50% inhibitory concentration (IC50) in assay [2] was below 50 nM. Besides, the IC50 in assay [3] was below 50 nM.

For `O=C(O)CN1CCCN(c2ccc(Nc3nc(N4CCCCC4)nc4cn[nH]c(=O)c34)cc2)CC1` [Example 154, 2-(4-(4-((5-oxo-2-(piperidin-1-yl)-5,6-dihydropyrimido[4,5-d]pyridazin-4-yl)amino)phenyl)-1,4-diazepan-1-yl)acetic acid], in assay [1], the inhibition at 1 µM is 23% and the EC50 stood at 2320 nM. Moreover, the half-inhibitory concentration (IC50) in assay [2] was below 50 nM. Further, the IC50 in assay [3] is below 50 nM.

Consider `CC(C)(C(=O)O)N1CCN(c2ccc(Nc3nc(N4CCC(CC#N)CC4)nc4cn[nH]c(=O)c34)cc2)CC1` [Example 213, 2-(4-(4-((2-(4-(cyanomethyl)piperidin-1-yl)-5-oxo-5,6-dihydropyrimido[4,5-d]pyridazin-4-yl)amino)phenyl)piperazin-1-yl)-2-methylpropanoic acid], for which, in assay [1], the inhibition at 1 µM came out at 78% and the EC50 turned out to be 33 nM. For the same molecule, in assay [2], the IC50 is below 50 nM. For the same molecule, the IC50 in assay [3] was below 10 nM.

For the molecule `O=c1[nH]ncc2nc(N3CCCCC3)nc(Nc3ccc(OCCN4CCNCC4)cc3)c12` [Example 153, 4-((4-(2-(piperazin-1-yl)ethoxy)phenyl)amino)-2-(piperidin-1-yl)pyrimido[4,5-d]pyridazin-5(6H)-one], in assay [1], the inhibition at 1 µM is 47% and the concentration giving a half-maximal response (EC50) worked out at 324 nM. For the same molecule, the half-maximal inhibitory concentration (IC50) in assay [2] was below 100 nM. Besides, the IC50 in assay [3] is below 50 nM.

For the molecule `CCN(CC)CCOc1ccc(Nc2nc(N3CCCCCC3)nc3cn[nH]c(=O)c23)cc1` [Example 159, 2-(azepan-1-yl)-4-((4-(2-(diethylamino)ethoxy)phenyl)amino)pyrimido[4,5-d]pyridazin-5(6H)-one], in assay [1], the inhibition at 1 µM was 68% and the half-maximal effective concentration (EC50) was found to be 56 nM. Moreover, the IC50 in assay [2] was below 10 nM. The IC50 in assay [3] was below 50 nM.

For the molecule `O=C(O)CC1CCN(c2ccc(Nc3nc(-c4ccccc4)nc4cn[nH]c(=O)c34)cc2)CC1` [Example 34, 2-(1-(4-(5-oxo-2-phenyl-5,6-dihydropyrimido[4,5-d]pyridazin-4-ylamino)phenyl)piperidin-4-yl)acetic acid], in assay [1], the inhibition at 1 µM was 80% and the EC50 stood at 378 nM. Also, the IC50 in assay [2] is below 50 nM. The IC50 in assay [3] was below 50 nM.

Take `COC1CCN(c2ccc(Nc3nc(N4CCC(CC#N)CC4)nc4cn[nH]c(=O)c34)cc2)CC1` [Example 287, 2-(1-(4-((4-(4-methoxypiperidin-1-yl)phenyl)amino)-5-oxo-5,6-dihydropyrimido[4,5-d]pyridazin-2-yl)piperidin-4-yl)acetonitrile]: the inhibition at 1 µM in assay [1] is 97%. In addition, the EC50 in assay [1] came to 20 nM. The IC50 in assay [2] and in assay [3] was below 50 nM in each case.

As to `O=c1[nH]ncc2nc(-c3ccc4c(c3)OCO4)nc(Nc3ccc(CN4CCNCC4)cc3)c12` [Example 33, 2-(benzo[d][1,3]dioxol-5-yl)-4-(4-(piperazin-1-ylmethyl)phenylamino) pyrimido[4,5-d]pyridazin-5(6H)-one hydrochloride], in assay [1], the inhibition at 1 µM amounted to 58%. Further, the 50% inhibitory concentration (IC50) in assay [2] was above 100 nM; in assay [3], below 50 nM.

Turning to `O=C(O)CCc1ccc(Nc2nc(N3CCCCCC3)nc3cn[nH]c(=O)c23)cc1` [Example 304, 3-(4-((2-(azepan-1-yl)-5-oxo-5,6-dihydropyrimido[4,5-d]pyridazin-4-yl)amino)phenyl)propanoic acid], in assay [1], the inhibition at 1 µM is 70% and the EC50 was 55 nM. In assay [2], the IC50 is below 10 nM. For the same molecule, the IC50 in assay [3] was below 10 nM.

As for `O=c1[nH]ncc2nc(N3CCCCCC3)nc(Nc3ccc(CN4CCNCC4)cc3)c12` [Example 52, 2-(azepan-1-yl)-4-((4-(piperazin-1-ylmethyl)phenyl)amino)pyrimido[4,5-d]pyridazin-5(6H)-one hydrochloride], in assay [1], the inhibition at 1 µM was determined as 100%. Further, in assay [1], the EC50 came to 1 nM. Also, the concentration for half-maximal inhibition (IC50) in assay [2] and in assay [3] was below 10 nM in each case.

As to `N#CCC1CCN(c2nc(Nc3ccc(N4CCN(CC(O)CO)CC4)cc3)c3c(=O)[nH]ncc3n2)CC1` (centres unmarked) [Example 274, 2-(1-(4-((4-(4-(2,3-dihydroxypropyl)piperazin-1-yl)phenyl)amino)-5-oxo-5,6-dihydropyrimido[4,5-d]pyridazin-2-yl)piperidin-4-yl)acetonitrile], in assay [1], the inhibition at 1 µM is 59% and the EC50 came to 81 nM. Besides, the IC50 in assay [2] was below 10 nM. The IC50 in assay [3] is below 10 nM.

As for `N#CCC1CCN(c2nc(Nc3ccc(CCN4CCN(CCO)CC4)cc3)c3c(=O)[nH]ncc3n2)CC1` [Example 212, 2-(1-(4-((4-(2-(4-(2-hydroxyethyl)piperazin-1-yl)ethyl)phenyl)amino)-5-oxo-5,6-dihydropyrimido[4,5-d]pyridazin-2-yl)piperidin-4-yl)acetonitrile], in assay [1], the inhibition at 1 µM came out at 71% and the EC50 came to 28 nM. Further, the IC50 in assay [2] is below 50 nM. For the same molecule, the IC50 in assay [3] was below 50 nM.

For the molecule `CCN1CCN(c2ccc(Nc3nc(N4CCOCC4)nc4cn[nH]c(=O)c34)cc2)CC1` [Example 26, 4-(4-(4-ethylpiperazin-1-yl)phenylamino)-2-morpholinopyrimido[4,5-d]pyridazin-5(6H)-one], the inhibition at 1 µM in assay [1] was 67%. The figures for the half-inhibitory concentration (IC50) in assay [2] and in assay [3] were below 100 nM and below 10 nM, respectively.

Regarding `O=c1[nH]ncc2nc(N3CCCCC3)nc(Nc3ccc(OCCN4CCC(O)CC4)cc3)c12` [Example 183, 4-((4-(2-(4-hydroxypiperidin-1-yl)ethoxy)phenyl)amino)-2-(piperidin-1-yl)pyrimido[4,5-d]pyridazin-5(6H)-one], in assay [1], the inhibition at 1 µM came out at 41% and the EC50 came out at 83 nM. Also, the IC50 in assay [2] was below 50 nM. For the same molecule, in assay [3], the IC50 was below 10 nM.

As to `O=C(O)CC1CCN(c2ccc(Nc3nc(N4CCCCCC4)nc4cn[nH]c(=O)c34)cc2)CC1` [Example 69, 2-(1-(4-((2-(azepan-1-yl)-5-oxo-5,6-dihydropyrimido[4,5-d]pyridazin-4-yl)amino)phenyl)piperidin-4-yl)acetic acid], in assay [1], the inhibition at 1 µM was found to be 100% and the EC50 came out at 31 nM. Also, in assay [3], the IC50 is below 10 nM.

Values taken from patent US10183944B2 (Asana Biosciences, LLC, priority 2011, dated 2019).
